ChEMBL document CHEMBL1129214, “Synthesis and structure-activity relationship of C-3 quaternary ammonium cephalosporins exhibiting anti-MRSA activities” (1997)
In brackets after ≈: the same amount, converted by molar mass.

What was measured:
Assay type in all cases: functional
Staphylococcus aureus [1] = experiment: In vitro activity against MRSA (A27217; heterogeneous strain) by standard broth dilution method
Staphylococcus aureus [2] = experiment: In vitro activity against MRSA (A27223; homogeneous strain) by standard broth dilution method
Staphylococcus aureus [3] = experiment: In vitro activity against MRSA (A27226; homogeneous strain) by standard broth dilution method
Staphylococcus aureus [4] = experiment: In vitro activity against MRSA (A27621; homogeneous strain) by standard broth dilution method
Staphylococcus aureus [5] = experiment: In vitro activity against MSSA (A15090) by standard broth dilution method
Staphylococcus aureus [6] = experiment: In vitro activity against MSSA (A20241) by standard broth dilution method
[7] = In vivo inhibitory activity of compound against staphylococcus aureus; conditions: read-out: PD50
[8] = In vivo inhibitory activity of compound against staphylococcus aureus; […]; conditions: read-out: PD50
[9] = Staphylococcus aureus, read-out: MIC

SMILES	MIC (Staphylococcus aureus [1]; [9]) [µg/mL]	MIC (Staphylococcus aureus [2]; [9]) [µg/mL]	MIC (Staphylococcus aureus [3]; [9]) [µg/mL]	MIC (Staphylococcus aureus [4]; [9]) [µg/mL]	MIC (Staphylococcus aureus [5]; [9]) [µg/mL]	MIC (Staphylococcus aureus [6]; [9]) [µg/mL]	MIC (Staphylococcus aureus [1]) [µg/mL]	MIC (Staphylococcus aureus [2]) [µg/mL]	MIC (Staphylococcus aureus [3]) [µg/mL]	MIC (Staphylococcus aureus [4]) [µg/mL]	MIC (Staphylococcus aureus [5]) [µg/mL]	MIC (Staphylococcus aureus [6]) [µg/mL]	ED50 [7] [mg/kg]	ED50 [8] [mg/kg]
C[N+]1(CC2=C(C(=O)[O-])N3C(=O)[C@@H](NC(=O)CSc4cc(Cl)ccc4Cl)[C@H]3SC2)[C@@H]2CC[C@H]1C[C@@H](O)C2 (stereo in doubt; 6s)	–	–	–	–	–	–	1 (≈ 1.75 µM)	4 (≈ 6.99 µM)	4 (≈ 6.99 µM)	2 (≈ 3.49 µM)	0.125 (≈ 0.218 µM)	0.125 (≈ 0.218 µM)	9.5	–
O=C(C[N+]12CCN(CC1)CC2)N[C@@H]1C(=O)N2C(C(=O)[O-])=C(CSc3cc(Cl)ccc3Cl)CS[C@H]12	128 (≈ 236 µM)	128 (≈ 236 µM)	128 (≈ 236 µM)	128 (≈ 236 µM)	4 (≈ 7.36 µM)	4 (≈ 7.36 µM)	–	–	–	–	–	–	–	–
O=C(CSc1cc(Cl)ccc1Cl)N[C@@H]1C(=O)N2C(C(=O)[O-])=C(C[N+]34CCC(CC3)CC4)CS[C@H]12	2 (≈ 3.69 µM)	2 (≈ 3.69 µM)	4 (≈ 7.37 µM)	4 (≈ 7.37 µM)	1 (≈ 1.84 µM)	1 (≈ 1.84 µM)	–	–	–	–	–	–	–	–
C[N+]1(CC2=C(C(=O)[O-])N3C(=O)[C@@H](NC(=O)CSc4cc(Cl)ccc4Cl)[C@H]3SC2)C2CCCC1CC2 (stereo partly drawn)	2 (≈ 3.59 µM)	2 (≈ 3.59 µM)	2 (≈ 3.59 µM)	2 (≈ 3.59 µM)	0.25 (≈ 0.449 µM)	0.25 (≈ 0.449 µM)	–	–	–	–	–	–	–	–
O=C(CSc1cc(Cl)ccc1Cl)N[C@@H]1C(=O)N2C(C(=O)[O-])=C(C[N+]34CN5CN(CN(C5)C3)C4)CS[C@H]12	4 (≈ 7 µM)	8 (≈ 14 µM)	8 (≈ 14 µM)	8 (≈ 14 µM)	0.125 (≈ 0.219 µM)	0.125 (≈ 0.219 µM)	–	–	–	–	–	–	–	–
NCCC(=O)NC1C[N+]2(CC3=C(C(=O)[O-])N4C(=O)[C@@H](NC(=O)CSc5cc(Cl)ccc5Cl)[C@H]4SC3)CCC1CC2 (stereo partly drawn)	2 (≈ 3.18 µM)	4 (≈ 6.36 µM)	4 (≈ 6.36 µM)	4 (≈ 6.36 µM)	1 (≈ 1.59 µM)	1 (≈ 1.59 µM)	–	–	–	–	–	–	–	–
O=C(CSc1cc(Cl)ccc1Cl)N[C@@H]1C(=O)N2C(C(=O)[O-])=C(C[n+]3cccc4c3CCCC4)CS[C@H]12	1 (≈ 1.77 µM)	2 (≈ 3.54 µM)	1 (≈ 1.77 µM)	2 (≈ 3.54 µM)	0.5 (≈ 0.886 µM)	0.5 (≈ 0.886 µM)	–	–	–	–	–	–	–	–
O=C(CSc1cc(Cl)ccc1Cl)N[C@@H]1C(=O)N2C(C(=O)[O-])=C(C[N+]34CCN(CC3)CC4)CS[C@H]12	2 (≈ 3.68 µM)	4 (≈ 7.36 µM)	4 (≈ 7.36 µM)	4 (≈ 7.36 µM)	0.25 (≈ 0.46 µM)	0.5 (≈ 0.92 µM)	–	–	–	–	–	–	–	0.8
C[N+]1(CC2=C(C(=O)[O-])N3C(=O)[C@@H](NC(=O)CSc4cc(Cl)ccc4Cl)[C@H]3SC2)C2CCC1CC(=O)C2 (stereo partly drawn)	2 (≈ 3.51 µM)	4 (≈ 7.01 µM)	4 (≈ 7.01 µM)	4 (≈ 7.01 µM)	0.5 (≈ 0.876 µM)	0.5 (≈ 0.876 µM)	–	–	–	–	–	–	–	–
O=C(CSc1cc(Cl)ccc1Cl)N[C@@H]1C(=O)N2C(C(=O)[O-])=C(C[N+]34CCC(CC3)C(O)C4)CS[C@H]12 (stereo partly drawn)	1 (≈ 1.79 µM)	1 (≈ 1.79 µM)	1 (≈ 1.79 µM)	1 (≈ 1.79 µM)	0.25 (≈ 0.448 µM)	0.25 (≈ 0.448 µM)	–	–	–	–	–	–	–	–
NCC(=O)NC1C[N+]2(CC3=C(C(=O)[O-])N4C(=O)[C@@H](NC(=O)CSc5cc(Cl)ccc5Cl)[C@H]4SC3)CCC1CC2 (stereo partly drawn)	4 (≈ 6.51 µM)	4 (≈ 6.51 µM)	2 (≈ 3.25 µM)	4 (≈ 6.51 µM)	0.5 (≈ 0.814 µM)	0.5 (≈ 0.814 µM)	–	–	–	–	–	–	–	–
C[N+]1(CC2=C(C(=O)[O-])N3C(=O)[C@@H](NC(=O)CSc4cc(Cl)ccc4Cl)[C@H]3SC2)[C@@H]2CC[C@H]1C[C@@H](O)C2 (stereo in doubt; 6r)	1 (≈ 1.75 µM)	2 (≈ 3.49 µM)	2 (≈ 3.49 µM)	2 (≈ 3.49 µM)	0.25 (≈ 0.437 µM)	0.25 (≈ 0.437 µM)	–	–	–	–	–	–	–	0.8

Continued, in another order:

MIC (Staphylococcus aureus [1]; [9]) [µg/mL]	MIC (Staphylococcus aureus [2]; [9]) [µg/mL]	MIC (Staphylococcus aureus [3]; [9]) [µg/mL]	MIC (Staphylococcus aureus [4]; [9]) [µg/mL]	MIC (Staphylococcus aureus [5]; [9]) [µg/mL]	MIC (Staphylococcus aureus [6]; [9]) [µg/mL]	SMILES	MIC (Staphylococcus aureus [1]) [µg/mL]	MIC (Staphylococcus aureus [2]) [µg/mL]	MIC (Staphylococcus aureus [3]) [µg/mL]	MIC (Staphylococcus aureus [4]) [µg/mL]	MIC (Staphylococcus aureus [5]) [µg/mL]	MIC (Staphylococcus aureus [6]) [µg/mL]	ED50 [7] [mg/kg]	ED50 [8] [mg/kg]
2 (≈ 3.64 µM)	4 (≈ 7.28 µM)	1 (≈ 1.82 µM)	2 (≈ 3.64 µM)	0.25 (≈ 0.455 µM)	0.5 (≈ 0.91 µM)	O=C(CSc1cc(Cl)ccc1Cl)N[C@@H]1C(=O)N2C(C(=O)[O-])=C(C[n+]3ccn4ccccc43)CS[C@H]12	–	–	–	–	–	–	–	–
1 (≈ 1.82 µM)	2 (≈ 3.63 µM)	1 (≈ 1.82 µM)	2 (≈ 3.63 µM)	0.125 (≈ 0.227 µM)	0.125 (≈ 0.227 µM)	O=C(CSc1cc(Cl)ccc1Cl)N[C@@H]1C(=O)N2C(C(=O)[O-])=C(C[n+]3cccc4[nH]cnc43)CS[C@H]12	–	–	–	–	–	–	–	–
2 (≈ 3.54 µM)	4 (≈ 7.09 µM)	2 (≈ 3.54 µM)	4 (≈ 7.09 µM)	0.5 (≈ 0.886 µM)	0.5 (≈ 0.886 µM)	O=C(CSc1cc(Cl)ccc1Cl)N[C@@H]1C(=O)N2C(C(=O)[O-])=C(C[n+]3ccc4c(c3)CCCC4)CS[C@H]12	–	–	–	–	–	–	–	–
1 (≈ 1.82 µM)	2 (≈ 3.64 µM)	2 (≈ 3.64 µM)	2 (≈ 3.64 µM)	1 (≈ 1.82 µM)	1 (≈ 1.82 µM)	O=C(CSc1cc(Cl)ccc1Cl)N[C@@H]1C(=O)N2C(C(=O)[O-])=C(C[n+]3cccc4cc[nH]c43)CS[C@H]12	–	–	–	–	–	–	–	–
1 (≈ 1.73 µM)	1 (≈ 1.73 µM)	1 (≈ 1.73 µM)	1 (≈ 1.73 µM)	1 (≈ 1.73 µM)	1 (≈ 1.73 µM)	O=C(CSc1cc(Cl)ccc1Cl)N[C@@H]1C(=O)N2C(C(=O)[O-])=C(C[n+]3ccc4c(O)cccc4c3)CS[C@H]12	–	–	–	–	–	–	–	–
2 (≈ 3.38 µM)	2 (≈ 3.38 µM)	2 (≈ 3.38 µM)	2 (≈ 3.38 µM)	0.5 (≈ 0.844 µM)	1 (≈ 1.69 µM)	NC(=O)c1ccc2n(cc[n+]2CC2=C(C(=O)[O-])N3C(=O)[C@@H](NC(=O)CSc4cc(Cl)ccc4Cl)[C@H]3SC2)c1	–	–	–	–	–	–	–	–
2 (≈ 3.16 µM)	2 (≈ 3.16 µM)	2 (≈ 3.16 µM)	2 (≈ 3.16 µM)	1 (≈ 1.58 µM)	1 (≈ 1.58 µM)	NC(=O)COc1cccc2c[n+](CC3=C(C(=O)[O-])N4C(=O)[C@@H](NC(=O)CSc5cc(Cl)ccc5Cl)[C@H]4SC3)ccc12	–	–	–	–	–	–	–	–
2 (≈ 3.57 µM)	2 (≈ 3.57 µM)	2 (≈ 3.57 µM)	2 (≈ 3.57 µM)	0.5 (≈ 0.892 µM)	0.5 (≈ 0.892 µM)	O=C(CSc1cc(Cl)ccc1Cl)N[C@@H]1C(=O)N2C(C(=O)[O-])=C(C[n+]3ccc4ccccc4c3)CS[C@H]12	–	–	–	–	–	–	–	–
